# ChEMBL document CHEMBL3431459, “Roche carnitine palmitoyltransferase modulator screening data (supplementary data associated with the publication CHEMBL2216752)”
# Tests used:
# [1] = target: T1, Carnitine O-palmitoyltransferase 1, muscle isoform (Homo sapiens, UniProt Q92523); assay: SUPPLEMENTARY: Inhibition of Carnitine palmitoyltransferase 1, muscle isoform; design: species or system Muscle tissue
# T1 sequence (Q92523 whole entry): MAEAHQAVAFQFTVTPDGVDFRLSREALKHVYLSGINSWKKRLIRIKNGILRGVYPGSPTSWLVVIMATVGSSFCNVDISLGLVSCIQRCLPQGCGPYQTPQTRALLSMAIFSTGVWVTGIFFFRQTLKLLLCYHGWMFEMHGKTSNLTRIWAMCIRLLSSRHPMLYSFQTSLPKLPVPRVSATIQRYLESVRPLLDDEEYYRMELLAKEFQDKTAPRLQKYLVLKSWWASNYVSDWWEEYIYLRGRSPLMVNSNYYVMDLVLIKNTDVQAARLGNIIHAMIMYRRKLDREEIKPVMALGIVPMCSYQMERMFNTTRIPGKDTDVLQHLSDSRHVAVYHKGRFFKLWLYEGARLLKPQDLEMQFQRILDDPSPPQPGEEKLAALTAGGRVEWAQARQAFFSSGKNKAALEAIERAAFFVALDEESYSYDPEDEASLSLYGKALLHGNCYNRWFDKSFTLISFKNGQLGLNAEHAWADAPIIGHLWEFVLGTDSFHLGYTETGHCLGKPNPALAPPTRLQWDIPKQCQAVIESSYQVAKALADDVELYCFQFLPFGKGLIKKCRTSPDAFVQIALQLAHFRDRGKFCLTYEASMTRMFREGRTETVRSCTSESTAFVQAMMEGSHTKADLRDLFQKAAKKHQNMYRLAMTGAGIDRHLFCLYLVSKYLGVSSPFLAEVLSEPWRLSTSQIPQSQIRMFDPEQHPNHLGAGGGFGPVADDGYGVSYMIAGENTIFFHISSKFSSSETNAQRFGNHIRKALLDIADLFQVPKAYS
# [2] = target: T2, Carnitine O-palmitoyltransferase 2, mitochondrial (Homo sapiens, UniProt P23786); assay: (§1) SUPPLEMENTARY: Inhibition of Carnitine palmitoyltransferase 2
# T2 sequence (P23786 whole entry): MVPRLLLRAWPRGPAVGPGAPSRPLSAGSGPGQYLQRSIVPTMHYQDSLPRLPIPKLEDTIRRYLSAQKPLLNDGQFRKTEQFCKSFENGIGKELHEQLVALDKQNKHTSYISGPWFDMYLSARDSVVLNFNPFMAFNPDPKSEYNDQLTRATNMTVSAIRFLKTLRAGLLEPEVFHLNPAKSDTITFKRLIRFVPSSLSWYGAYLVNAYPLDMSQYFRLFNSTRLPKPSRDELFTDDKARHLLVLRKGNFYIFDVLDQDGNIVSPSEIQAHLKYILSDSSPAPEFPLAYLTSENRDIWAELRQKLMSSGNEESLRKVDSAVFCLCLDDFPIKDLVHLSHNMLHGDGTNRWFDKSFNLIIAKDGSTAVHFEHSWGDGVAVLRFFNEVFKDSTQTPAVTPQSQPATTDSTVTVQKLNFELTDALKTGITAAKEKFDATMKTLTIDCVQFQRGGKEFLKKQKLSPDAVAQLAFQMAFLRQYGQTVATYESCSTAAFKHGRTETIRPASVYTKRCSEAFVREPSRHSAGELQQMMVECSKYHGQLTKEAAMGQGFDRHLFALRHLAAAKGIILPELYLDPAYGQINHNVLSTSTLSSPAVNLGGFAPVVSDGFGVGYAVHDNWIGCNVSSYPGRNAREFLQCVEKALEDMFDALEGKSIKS
# [3] = target: T3, Carnitine O-palmitoyltransferase 2, mitochondrial (Rattus norvegicus, UniProt P18886); assay: as §1
# T3 sequence (P18886 whole entry): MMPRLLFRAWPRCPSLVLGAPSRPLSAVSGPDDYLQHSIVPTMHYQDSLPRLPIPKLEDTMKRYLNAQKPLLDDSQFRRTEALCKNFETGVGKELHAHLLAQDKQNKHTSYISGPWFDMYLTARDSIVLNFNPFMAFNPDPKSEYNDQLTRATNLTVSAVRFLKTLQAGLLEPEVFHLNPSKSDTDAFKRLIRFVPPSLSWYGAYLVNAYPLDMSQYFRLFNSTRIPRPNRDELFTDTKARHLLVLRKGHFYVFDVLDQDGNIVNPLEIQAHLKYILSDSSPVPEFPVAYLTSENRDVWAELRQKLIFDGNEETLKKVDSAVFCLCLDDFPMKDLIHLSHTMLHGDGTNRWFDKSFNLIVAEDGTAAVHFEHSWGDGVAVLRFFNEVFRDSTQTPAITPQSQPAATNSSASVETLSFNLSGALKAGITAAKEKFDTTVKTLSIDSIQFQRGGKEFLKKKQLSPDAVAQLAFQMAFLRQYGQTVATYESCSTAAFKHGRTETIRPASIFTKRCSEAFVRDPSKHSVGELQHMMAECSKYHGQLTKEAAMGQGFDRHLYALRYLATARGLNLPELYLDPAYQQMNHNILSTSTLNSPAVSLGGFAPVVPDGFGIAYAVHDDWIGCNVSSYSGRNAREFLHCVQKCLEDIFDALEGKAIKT
# [4] = target: T4, Carnitine O-palmitoyltransferase 1, liver isoform (Homo sapiens, UniProt P50416); assay: (§2) SUPPLEMENTARY: Inhibition of Carnitine palmitoyltransferase 1, liver isoform
# T4 sequence (P50416 whole entry): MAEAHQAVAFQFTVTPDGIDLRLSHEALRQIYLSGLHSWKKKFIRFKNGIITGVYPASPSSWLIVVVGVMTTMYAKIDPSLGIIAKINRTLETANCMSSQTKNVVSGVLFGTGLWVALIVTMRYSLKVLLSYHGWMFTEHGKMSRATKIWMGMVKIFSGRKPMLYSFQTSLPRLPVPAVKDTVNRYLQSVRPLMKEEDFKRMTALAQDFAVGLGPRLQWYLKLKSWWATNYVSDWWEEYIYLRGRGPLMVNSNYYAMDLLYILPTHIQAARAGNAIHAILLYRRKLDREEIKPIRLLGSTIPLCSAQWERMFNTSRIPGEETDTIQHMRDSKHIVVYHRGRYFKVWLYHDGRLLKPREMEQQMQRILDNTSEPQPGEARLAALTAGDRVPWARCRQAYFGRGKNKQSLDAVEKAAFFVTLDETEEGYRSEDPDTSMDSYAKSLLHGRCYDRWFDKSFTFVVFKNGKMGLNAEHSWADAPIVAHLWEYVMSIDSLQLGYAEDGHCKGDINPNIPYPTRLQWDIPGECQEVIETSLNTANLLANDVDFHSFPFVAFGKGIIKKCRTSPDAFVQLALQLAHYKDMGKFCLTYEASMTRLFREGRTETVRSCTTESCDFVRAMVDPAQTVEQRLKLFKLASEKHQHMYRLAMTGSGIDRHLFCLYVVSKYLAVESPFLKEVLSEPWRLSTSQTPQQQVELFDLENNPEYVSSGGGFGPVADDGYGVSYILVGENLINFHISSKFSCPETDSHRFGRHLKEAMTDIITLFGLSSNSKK
# [5] = target: T5, Carnitine O-palmitoyltransferase 1, liver isoform (Rattus norvegicus, UniProt P32198); assay: as §2
# T5 sequence (P32198 whole entry): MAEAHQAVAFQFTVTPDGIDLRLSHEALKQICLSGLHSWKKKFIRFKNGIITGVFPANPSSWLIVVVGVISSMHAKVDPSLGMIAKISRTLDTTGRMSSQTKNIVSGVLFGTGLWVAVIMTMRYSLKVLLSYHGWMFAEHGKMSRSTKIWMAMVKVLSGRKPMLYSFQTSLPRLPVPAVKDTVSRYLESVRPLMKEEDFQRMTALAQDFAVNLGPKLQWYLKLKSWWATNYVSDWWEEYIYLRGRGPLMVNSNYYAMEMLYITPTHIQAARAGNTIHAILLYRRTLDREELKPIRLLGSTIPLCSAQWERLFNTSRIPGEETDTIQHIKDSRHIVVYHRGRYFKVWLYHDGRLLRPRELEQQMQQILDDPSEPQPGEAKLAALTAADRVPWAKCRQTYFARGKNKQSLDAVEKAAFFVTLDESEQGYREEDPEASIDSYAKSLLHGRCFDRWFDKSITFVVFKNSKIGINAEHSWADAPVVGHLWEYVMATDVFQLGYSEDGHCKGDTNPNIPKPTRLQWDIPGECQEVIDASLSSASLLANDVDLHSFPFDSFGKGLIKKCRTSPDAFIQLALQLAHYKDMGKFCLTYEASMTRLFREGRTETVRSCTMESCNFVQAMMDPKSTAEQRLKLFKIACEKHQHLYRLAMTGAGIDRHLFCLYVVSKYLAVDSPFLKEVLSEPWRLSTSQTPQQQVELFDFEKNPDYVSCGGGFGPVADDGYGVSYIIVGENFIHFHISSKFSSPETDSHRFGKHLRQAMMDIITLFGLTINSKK
# [6] = SUPPLEMENTARY: Lyophilisation Solubility Assay (LYSA); type: physicochemical; details: read-out: Kinetic_solubility
# [7] = SUPPLEMENTARY: Lipophilicity (log D) Determination by high-throughput shake-flask; type: physicochemical; details: octanol/water
# [8] = SUPPLEMENTARY: PAMPA permeability assay; type: physicochemical; details: read-out: Permeability
IC50 [1] [nM],IC50 [2] [nM],IC50 [3] [nM],IC50 [4] [nM],IC50 [5] [nM],solubility kinetic [6] [µg/mL],logD [7],Papp [8] [×10⁻⁶ cm/s],SMILES
> 100000,81400,> 100000,106,187,61.5,3.06,4.79,O=C(COc1ccccc1)N1CCCC[C@@H]1c1nc(-c2ccccc2F)n[nH]1
> 100000,> 100000,> 100000,239,598,77,2.77,1.72,O=C(COc1ccccc1)N1CCCC[C@@H]1c1nc(-c2ccc(F)c(F)c2)n[nH]1
5300,2800,10500,31,18.1,481,0.55,1.95,Cc1cc(C)cc(S(=O)(=O)N2CCS(=O)(=O)c3ccc(C(=O)Nc4ccc(C(=O)O)cc4)cc32)c1
> 100000,> 100000,> 100000,288,500,< 1,> 3,2.48,COc1ccc(-c2noc([C@H]3CCCCN3C(=O)C#Cc3ccccc3)n2)cc1
> 100000,22300,> 100000,206,125,18,2.39,2.96,CS(=O)(=O)c1cccc(-c2nc([C@H]3CCCCN3C(=O)COc3ccccc3)no2)c1
> 100000,> 100000,> 100000,232,759,11,2.49,6.36,N#Cc1cncc(-c2noc([C@H]3CCCCN3C(=O)COc3ccccc3)n2)c1
> 100000,42700,> 100000,110,372,61,2.47,4.86,Nc1cc(-c2nc([C@H]3CCCCN3C(=O)COc3ccccc3)no2)ccn1
634,> 100000,> 100000,105,408,577,< -1,0.04,CCOc1ccc(C(=O)Nc2ccc(CC(=O)O)cc2)cc1N(CCS(=O)O)S(=O)(=O)c1cc(Cl)ccc1OC
> 100000,38400,> 100000,142,165,9,3.07,2.33,O=C1CCCN1c1cccc(-c2nc([C@H]3CCCCN3C(=O)COc3ccccc3)no2)c1
> 100000,> 100000,> 100000,27.9,146,18,3,2.17,CC(=O)Nc1cc(-c2noc([C@H]3CCCCN3C(=O)COc3ccccc3)n2)ccc1F
> 100000,84200,> 100000,87.3,189,30,2.84,1.67,O=C(COc1ccccc1)N1CCCC[C@@H]1c1noc(-c2cccc3[nH]cnc23)n1
82200,> 100000,> 100000,111,112,< 1,3.3,0.26,COc1ccc(Cl)cc1S(=O)(=O)N1CCc2ccc(C#Cc3ccc(C(=O)O)cc3)cc21
79000,2810,3520,182,110,< 1,3.2,1.91,O=C([C@H]1CCCCN1C(=O)COc1ccccc1)N1CCc2cccc(Cl)c2C1
2470,> 100000,> 100000,130,119,44,2.7,0.86,COc1ccc(Cl)cc1Cc1cn(C)c2ccc(C(=O)Nc3ccc(CC(=O)O)cc3)cc12
755,966,3410,132,92.6,> 579,0.26,1.2,COc1ccc(Cl)cc1S(=O)(=O)N1CCc2ccc(C(=O)Nc3ccc(C(=O)O)c(Cl)c3)cc21
